Patent US20230212571A1, “COMPOSITIONS AND METHODS FOR DELIVERING POLYNUCLEOTIDES” (NeOnc Technologies, Inc., priority 2020, published 2023)

Columns and labels:
[1] = Pharmacokinetic study of miR-18a in serum and brain by RT-qPCR; format: in vivo, C57BL/6 mice
Excerpt: All animal protocols were approved by the USC's Institutional Animal Care and Use Committee (IACUC) and strictly adhered to. MiR-18a was co-administered with Ago-2 (0.0008 nmol/mouse) to increase stability and cellular uptake^9 (Ferreira R, Santos T, Amar A, et al. Argonaute-2 promotes miR-18a entry in human brain endothelial cells. J Am Heart Assoc. 2014; 3(3):e000968). (FIG. 9). Details about randomization, blinding, group size and inclusion/exclusion criteria have been included in Methods.
For pharmacokinetic measurements, 0.8 nmol/mouse of miR-18a were administered IV or IN to C57BL/6 mice. At the indicated time points, mice were euthanized, and the serum and brains were collected and flash-frozen in liquid nitrogen (n=6 per time-point and condition). MicroRNAs were isolated using the mirVana™ miRNA Isolation Kit and measured by RT-qPCR as described above.

[2] = tested on: AVM-BEC; test: RT-qPCR mRNA expression in AVM-BEC; format: cell-based, human
Excerpt: Human surgical specimens were obtained following written informed consent from patients in accordance with Declaration of Helsinki guidelines and the Institutional Review Board (HS-04B053), at Keck School of Medicine, USC. AVM-BECs were isolated from brain tissues of patients who underwent microsurgical AVM resection. Control BECs were isolated from the structurally normal […] of patients who underwent temporal lobectomy for intractable epilepsy. Endothelial cell (EC) isolation and culture were described^5,9. (Stapleton C J, Armstrong D L, Zidovetzki R, Liu C Y, Giannotta S L, Hofman F M. Thrombospondin-1 modulates the angiogenic phenotype of human cerebral arteriovenous malformation endothelial cells. Neurosurgery. 2011; 68(5):1342-1353) (Ferreira R, Santos T, Amar A, et al. Argonaute-2 promotes miR-18a entry in human brain endothelial cells. J Am Heart Assoc. 2014; 3(3):e000968) ECs were only used between passages 3-5. Experiments were performed under shear flow conditions (12 dyn/cm^2) to reproduce arterial flow^6. (Ferreira R, Santos T, Amar A, et al. MicroRNA-18a improves human cerebral arteriovenous malformation endothelial cell function. Stroke. 2014; 45(1):293-297). For hypoxic experiments, cells were cultured in a Galaxy 48R (Eppendorf) incubator at 3% O2. MicroRNAs were co-administered with Ago-2 to increase the cellular uptake of miR-18a^9 (Ferreira R, Santos T, Amar A, et al. Argonaute-2 promotes miR-18a entry in human brain endothelial cells. J Am Heart Assoc. 2014; 3(3):e000968) (FIG. 9). Methods regarding cell treatments and transfections were included in Data.
MiR-18a (hsa-miR-18a-5p, 40 nM, Dharmacon) or a scramble microRNA (40 nM, Dharmacon) in nuclease-free water was added with argonaute 2 (Ago-2, 0.4 nM, Abcam) as the microRNA carrier and stabilizer^9. (Ferreira R, Santos T, Amar A, et al. Argonaute-2 promotes miR-18a entry in human brain endothelial cells. J Am Heart Assoc. 2014; 3(3):e000968). No transfection reagent was used with miR-18a or scramble microRNA treatments. Recombinant human TSP-1 (R&D Systems) stock solution was prepared in PBS and further diluted in culture medium to be used at a final concentration of 1000 ng/mL. Cells were treated during 24 h for mRNA and 48 h for protein expression studies. NEO100 (NeOnc Technologies) stock was prepared in DMSO and used immediately or stored at −20° C.
The extraction and analysis of total mRNA and microRNAs were described^9,13. (Ferreira R, Santos T, Amar A, et al. Argonaute-2 promotes miR-18a entry in human brain endothelial cells. J Am Heart Assoc. 2014; 3(3):e000968) (Marín-Ramos N I, Jhaveri N, Thein T Z, Fayngor R A, Chen T C, Hofman F M. NEO212, a conjugate of temozolomide and perillyl alcohol, blocks the endothelial-to-mesenchymal transition in tumor-associated brain endothelial cells in glioblastoma. Cancer Lett. 2018; 442:170-180). The Human Notch Signaling Pathway RT^2 Profiler PCR Array (Qiagen) was used to analyze the expression of 84 genes related to Notch signaling. For mRNA studies, […] (B2M) was measured for sample normalization. The primer sequences were included in Table 2. For microRNA analysis, RNU44 and U6 snRNA TaqMan microRNA Control Assays were used for normalization of human and mice samples, respectively.

Substance: hsa-miR-18a-5p (UAGGUGCAUCUAGUGCAGAUAG; chemistry not given here; listed as Homo sapiens) [small non-coding RNA molecule involved in post-transcriptional regulation of gene expression; Dharmacon]
- miR-18a levels compared to scramble microRNA-treated mice ([1]; 0.8 nmol/mouse IV or IN, C57BL/6 mice): approximately 40 times
- retention of miR-18a, IN compared with IV ([1]; 0.8 nmol/mouse, IN administration): longer retention times
- time of highest levels of miR-18a in serum and brains, IV compared with IN ([1]; 0.8 nmol/mouse, IV administration): earlier
- amount of microRNA in the brain, times the basal levels of miR-18a ([1]; IN administration, 0.8 nmol/mouse): approximately 40 times
- time required to reach the peak levels ([1]; IN administration, brain): 2 h
- BMP4 mRNA expression ([2]; AVM-BEC, 24 h, vs scramble, P=0.0022): normalized
- MMP2 mRNA expression ([2]; AVM-BEC, P=0.0004): normalized
- MMP9 mRNA expression ([2]; AVM-BEC, P=0.0091): normalized
- HIF-1α expression ([2]; AVM-BEC, hypoxia 3% O2): remained unaltered
- HIF-1α expression ([2]; AVM-BEC, normoxia): significantly (P=0.0025) decreased
- ALK2 mRNA expression ([2]; AVM-BEC, vs scramble, P<0.0001): normalized
- MGP mRNA expression ([2]; AVM-BEC, vs scramble, P<0.0001): normalized
- ALK1 mRNA expression ([2]; AVM-BEC, vs scramble, P=0.0013): normalized
- ALK5 mRNA expression ([2]; AVM-BEC, vs scramble, P=0.0072): normalized
- BMP9 mRNA expression ([2]; non-HHT related AVM-BEC, P>0.05): No significant differences
